Assay: mn = molality of the nth substance listed, in mol/kg
Settings: 101.33 kPa, Liquid; for viscosity: Capillary tube (Ostwald / Ubbelohde) method; for speed of sound: Sing-around technique in a fixed-path interferometer; for mass density: Vibrating tube method

CCCCCCCCCCCCOS(=O)(=O)[O-].[Na+] [sodium dodecyl sulfate] + O
Settings	mass density [kg/m3]	speed of sound [m/s]	viscosity [mPa·s]
293.15 K, m1 = 0.0001	998.198	1482.9	1.014
293.15 K, m1 = 0.0003	998.209	1482.9	1.014
293.15 K, m1 = 0.0005	998.221	1483	1.016
293.15 K, m1 = 0.002	998.31	1483.2	1.02
293.15 K, m1 = 0.004	998.425	1483.5	1.02
293.15 K, m1 = 0.006	998.538	1483.7	1.024
293.15 K, m1 = 0.008	998.647	1484	1.026
293.15 K, m1 = 0.01	998.75	1484.2	1.027
293.15 K, m1 = 0.012	998.851	1484.5	1.029
293.15 K, m1 = 0.014	998.949	1484.6	1.034
293.15 K, m1 = 0.016	999.048	1484.8	1.036
293.15 K, m1 = 0.018	999.145	1484.9	1.04
293.15 K, m1 = 0.02	999.237	1485	1.042
293.15 K, m1 = 0.022	999.338	1485.2	1.047
293.15 K, m1 = 0.024	999.426	1485.3	1.052
298.15 K, m1 = 0.0001	997.034	1497	0.895
298.15 K, m1 = 0.0003	997.045	1497	0.8952
298.15 K, m1 = 0.0005	997.057	1497.1	0.8955
298.15 K, m1 = 0.002	997.144	1497.3	0.8963
298.15 K, m1 = 0.004	997.255	1497.6	0.8969
298.15 K, m1 = 0.006	997.365	1497.8	0.8976
298.15 K, m1 = 0.008	997.472	1498.1	0.8981
298.15 K, m1 = 0.01	997.569	1498.4	0.899
298.15 K, m1 = 0.012	997.67	1498.6	0.9008
298.15 K, m1 = 0.014	997.768	1498.7	0.9073
298.15 K, m1 = 0.016	997.867	1498.9	0.9091
298.15 K, m1 = 0.018	997.957	1499	0.9114
298.15 K, m1 = 0.02	998.048	1499.1	0.9136
298.15 K, m1 = 0.022	998.142	1499.3	0.9191
298.15 K, m1 = 0.024	998.232	1499.4	0.9211
303.15 K, m1 = 0.0001	995.633	1509.3	0.801
303.15 K, m1 = 0.0003	995.644	1509.4	0.8015
303.15 K, m1 = 0.0005	995.655	1509.4	0.8018
303.15 K, m1 = 0.002	995.74	1509.6	0.8024
303.15 K, m1 = 0.004	995.848	1509.9	0.8028
303.15 K, m1 = 0.006	995.955	1510.2	0.8032
303.15 K, m1 = 0.008	996.058	1510.4	0.8037
303.15 K, m1 = 0.01	996.155	1510.7	0.8039
303.15 K, m1 = 0.012	996.252	1510.8	0.8054
303.15 K, m1 = 0.014	996.348	1511	0.8085
303.15 K, m1 = 0.016	996.441	1511.2	0.8114
303.15 K, m1 = 0.018	996.536	1511.3	0.8135
303.15 K, m1 = 0.02	996.624	1511.4	0.8161
303.15 K, m1 = 0.022	996.718	1511.6	0.8193
303.15 K, m1 = 0.024	996.807	1511.7	0.8206
308.15 K, m1 = 0.0001	994.016	1520	0.7228
308.15 K, m1 = 0.0003	994.026	1520	0.7232
308.15 K, m1 = 0.0005	994.037	1520	0.7236
308.15 K, m1 = 0.002	994.12	1520.2	0.7241
308.15 K, m1 = 0.004	994.224	1520.5	0.7245
308.15 K, m1 = 0.006	994.327	1520.8	0.725
308.15 K, m1 = 0.008	994.429	1521	0.7253
308.15 K, m1 = 0.01	994.524	1521.3	0.7259
308.15 K, m1 = 0.012	994.619	1521.5	0.7264
308.15 K, m1 = 0.014	994.715	1521.6	0.7279
308.15 K, m1 = 0.016	994.806	1521.8	0.73
308.15 K, m1 = 0.018	994.898	1521.9	0.7345
308.15 K, m1 = 0.02	994.988	1522	0.7388
308.15 K, m1 = 0.022	995.076	1522.2	0.7422
308.15 K, m1 = 0.024	995.164	1522.3	0.7465
313.15 K, m1 = 0.0001	992.2	1529	0.6564
313.15 K, m1 = 0.0003	992.21	1529	0.6566
313.15 K, m1 = 0.0005	992.22	1529.1	0.657
313.15 K, m1 = 0.002	992.299	1529.3	0.6576
313.15 K, m1 = 0.004	992.402	1529.5	0.6585
313.15 K, m1 = 0.006	992.5	1529.8	0.6599
313.15 K, m1 = 0.008	992.601	1530.1	0.6616
313.15 K, m1 = 0.01	992.696	1530.3	0.6628
313.15 K, m1 = 0.012	992.789	1530.5	0.6646
313.15 K, m1 = 0.014	992.884	1530.7	0.6667
313.15 K, m1 = 0.016	992.975	1530.8	0.6689
313.15 K, m1 = 0.018	993.061	1530.9	0.6718
313.15 K, m1 = 0.02	993.153	1531.1	0.6747
313.15 K, m1 = 0.022	993.239	1531.2	0.6775
313.15 K, m1 = 0.024	993.323	1531.3	0.6794

NCC(=O)O [2-aminoacetic acid] + O
Settings	mass density [kg/m3]	speed of sound [m/s]	viscosity [mPa·s]
293.15 K, m1 = 0.05	999.804	1486.2	1.013
293.15 K, m1 = 0.0999	1001.4	1488.6	1.022
293.15 K, m1 = 0.1499	1002.99	1491.1	1.029
293.15 K, m1 = 0.2001	1004.57	1493.6	1.036
293.15 K, m1 = 0.2504	1006.14	1496	1.039
293.15 K, m1 = 0.2999	1007.67	1498.4	1.048
293.15 K, m1 = 0.3501	1009.21	1500.8	1.056
293.15 K, m1 = 0.3998	1010.72	1503.2	1.06
298.15 K, m1 = 0.05	–	1500.3	0.8991
298.15 K, m1 = 0.0999	1000.21	1502.7	0.908
298.15 K, m1 = 0.1499	1001.78	1505.1	0.9168
298.15 K, m1 = 0.2001	1003.34	1507.5	0.9232
298.15 K, m1 = 0.2504	1004.9	1510	0.9281
298.15 K, m1 = 0.2999	1006.41	1512.3	0.933
298.15 K, m1 = 0.3501	1007.93	1514.7	0.9379
298.15 K, m1 = 0.3998	1009.43	1517	0.946
303.15 K, m1 = 0.05	–	1512.6	0.8077
303.15 K, m1 = 0.0999	998.773	1514.9	0.8177
303.15 K, m1 = 0.1499	1000.33	1517.3	0.8258
303.15 K, m1 = 0.2001	1001.88	1519.6	0.8319
303.15 K, m1 = 0.2504	1003.42	1522	0.8398
303.15 K, m1 = 0.2999	1004.92	1524.2	0.8434
303.15 K, m1 = 0.3501	1006.43	1526.5	0.8511
303.15 K, m1 = 0.3998	1007.92	1528.8	0.8533
308.15 K, m1 = 0.05	995.577	1523.1	0.7296
308.15 K, m1 = 0.0999	997.132	1525.4	0.7366
308.15 K, m1 = 0.1499	998.677	1527.7	0.7404
308.15 K, m1 = 0.2001	1000.22	1530	0.7474
308.15 K, m1 = 0.2504	1001.75	1532.2	0.7518
308.15 K, m1 = 0.2999	1003.24	1534.4	0.7578
308.15 K, m1 = 0.3501	1004.74	1536.7	0.7641
308.15 K, m1 = 0.3998	1006.21	1538.9	0.7679
313.15 K, m1 = 0.05	–	1532.1	0.6609
313.15 K, m1 = 0.0999	–	1534.3	0.6662
313.15 K, m1 = 0.1499	–	1536.5	0.6686
313.15 K, m1 = 0.2001	–	1538.7	0.6721
313.15 K, m1 = 0.2504	999.881	1540.9	0.6759
313.15 K, m1 = 0.2999	1001.36	1543.1	0.6798
313.15 K, m1 = 0.3501	1002.86	1545.3	0.6851
313.15 K, m1 = 0.3998	1004.33	1547.5	0.6881

Source: the NIST ThermoML archive (doi:10.1016/j.jct.2013.11.022)
